The test relates to ATDC5 cells. As to the kind of experiment: Chondrogenesis activity assay in ATDC5 cells (collagen type II induction, immunofluorescence). The class given is cell-based, mouse. The note with it: Mus musculus; for EC50: collagen type II induction in ATDC5 cells, concentration reaching 50% of maximum induction; for Emax: maximum percent induction of collagen type II relative to internal reference compound at 10 μM, ATDC5 cells. The method in brief: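 Mouse ATDC5 cells in insulin (10 μg/ml)-containing DMEM/F12 differentiation medium with 5% FCS were exposed to compound, typically 40 nM–10 μM at 0.1% DMSO, for 4 days at 37 °C. Intracellular collagen type II was quantified by Alexa Fluor 488 immunostaining with high-content imaging, relative to DMSO and a 10 μM reference compound.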

The structures appear in SMILES notation.

Usually EC50 stands for the concentration that produces a half-maximal response. Low values mean higher potency in that assay, high ones lower potency in that assay. By Emax is commonly meant the size of the effect at its maximum, as opposed to the concentration needed. `Cc1nccc2c1[nH]c1c(-c3cccc(OCc4nccs4)c3)cc(Cl)cc12` [Example 273, 6-Chloro-1-methyl-8-[3-(thiazol-2-ylmethoxy)-phenyl]-9H-pyrido[3,4-b]indole] came in with an EC50 of 170 nM and a maximal response (Emax) of less than 20%.

`Cc1nccc2c3cc(Cl)cc(-c4cnccc4Cl)c3n(CC3CC3)c12` [Example 283, 6-Chloro-8-(4-chloro-pyridin-3-yl)-9-cyclopropylmethyl-1-methyl-9H-pyrido[3,4-b]indole] yielded an EC50 of 410 nM and an Emax of less than 20%.

In turn, `Cc1nccc2c3cc(Cl)cc(-c4ccc(Cl)cc4Cl)c3n(CC3CC3)c12` [Example 282, 6-Chloro-9-cyclopropylmethyl-8-(2,4-dichloro-phenyl)-1-methyl-9H-pyrido[3,4-b]indole] had an EC50 of 3600 nM and an Emax of less than 20%.

`CCn1c2c(-c3cnn(C)c3)cc(Cl)cc2c2ccnc(C)c21` [Example 164, 6-Chloro-9-ethyl-1-methyl-8-(1-methyl-1H-pyrazol-4-yl)-9H-pyrido[3,4-b]indole] showed an EC50 of 230 nM and a maximal effect (Emax) of more than 80%.

The molecule `Cc1nccc2c1[nH]c1c(-c3ccncc3)cc(Cl)cc12` [Example 130, 6-Chloro-1-methyl-8-pyridin-4-yl-9H-pyrido[3,4-b]indole] registered an EC50 of 380 nM and an Emax of more than 80%.

`Cc1nn(C)c(C)c1-c1cc(Cl)cc2c3ccncc3n(CC(F)(F)F)c12` [Example 138, 6-Chloro-9-(2,2,2-trifluoro-ethyl)-8-(1,3,5-trimethyl-1H-pyrazol-4-yl)-9H-pyrido[3,4-b]indole]: the EC50 was more than 10000 nM and the Emax was less than 20%.

`CCn1c2c(-c3cc(C)nn3C)cc(Cl)cc2c2ccnc(C)c21` [Example 9, 6-Chloro-8-(2,5-dimethyl-2H-pyrazol-3-yl)-9-ethyl-1-methyl-9H-pyrido[3,4-b]indole]: it took 1400 nM to reach a half-maximal effect (EC50) and the Emax is more than 80%.

In the case of `FC(F)(F)Cn1c2cnccc2c2cc(Cl)cc(-c3cnc4ccccc4c3)c21` [Example 61, 6-Chloro-8-quinolin-3-yl-9-(2,2,2-trifluoro-ethyl)-9H-pyrido[3,4-b]indole], a half-maximal response (EC50) required 5600 nM and the Emax was more than 80%.

In turn, `CCn1c2c(-c3cnn(Cc4ccccn4)c3)cc(Br)cc2c2ccnc(C)c21` [Example 261, 6-Bromo-9-ethyl-1-methyl-8-(1-pyridin-2-ylmethyl-1H-pyrazol-4-yl)-9H-pyrido[3,4-b]indole] displayed a 50% effective concentration (EC50) of 1500 nM and an Emax of more than 80%.

The molecule `COc1ccc(-c2cc(Cl)cc3c2[nH]c2c(C)nccc23)c(N)n1` [Example 113, 3-(6-Chloro-1-methyl-9H-pyrido[3,4-b]indol-8-yl)-6-methoxy-pyridin-2-ylamine] displayed an EC50 of 780 nM and an Emax of more than 80%.

In turn, `Fc1ccc(-c2cc(Cl)cc3c4ccncc4n(CC(F)(F)F)c23)c(F)n1` [Example 63, 6-Chloro-8-(2,6-difluoro-pyridin-3-yl)-9-(2,2,2-trifluoro-ethyl)-9H-pyrido[3,4-b]indole] returned an EC50 of 590 nM and an Emax of 20 to 50%.

Take `CCn1c2c(-c3cnn(C)c3)cc(C)cc2c2ccnc(C)c21` [Example 15, 9-Ethyl-1,6-dimethyl-8-(1-methyl-1H-pyrazol-4-yl)-9H-pyrido[3,4-b]indole]: a half-maximal response (EC50) required 1000 nM and the Emax is 50 to 80%.

As to `CCn1c2c(-c3cncc(Cl)c3)cc(Cl)cc2c2ccnc(C)c21` [Example 78, 6-Chloro-8-(5-chloro-pyridin-3-yl)-9-ethyl-1-methyl-9H-pyrido[3,4-b]indole], the EC50 is more than 10000 nM and the Emax is less than 20%.

In turn, `Cc1nccc2c1[nH]c1c(-c3ccc(Cl)cc3)cc(Cl)cc12` [Example 189, 6-Chloro-8-(4-chloro-phenyl)-1-methyl-9H-pyrido[3,4-b]indole] yielded an EC50 of 500 nM and an Emax of more than 80%.

For the molecule `CC(C)c1nccc2c1[nH]c1c(-c3ccc(Cl)nc3Cl)cc(Cl)cc12` [Example 106, 6-Chloro-8-(2,6-dichloro-pyridin-3-yl)-1-isopropyl-9H-pyrido[3,4-b]indole], the half-maximal effective concentration (EC50) is more than 10000 nM and the Emax was 20 to 50%.

`Cc1nccc2c1[nH]c1c(-c3ccc(OC4CC4)cc3)cc(Cl)cc12` [Example 183, 6-Chloro-8-(4-cyclopropoxy-phenyl)-1-methyl-9H-pyrido[3,4-b]indole] registered a concentration giving a half-maximal response (EC50) of 2300 nM and an Emax of 50 to 80%.

For the molecule `CC#CCn1c2cnccc2c2cc(Cl)cc(-c3ccc(Cl)nc3Cl)c21` [Example 3, 9-(But-2-ynyl)-6-chloro-8-(2,6-dichloropyridin-3-yl)-9H-pyrido[3,4-b]indole], the EC50 was more than 10000 nM and the Emax lay in the range of 20 to 50%.

`COc1ccc(-c2cc(Cl)cc3c2[nH]c2c(C)nccc23)cc1O` [Example 180, 5-(6-Chloro-1-methyl-9H-pyrido[3,4-b]indol-8-yl)-2-methoxy-phenol] gave a 50% effective concentration (EC50) of 330 nM and an Emax of more than 80%.

Consider `Cc1nccc2c1[nH]c1c(-c3ccc(Oc4ncc(Br)cn4)cc3)cc(Cl)cc12` [Example 268, 8-[4-(5-Bromo-pyrimidin-2-yloxy)-phenyl]-6-chloro-1-methyl-9H-pyrido[3,4-b]indole], for which the response was half-maximal at 340 nM (EC50) and the Emax was more than 80%.

`Cc1nccc2c1[nH]c1c(-c3ccc([S+](C)[O-])cc3)cc(Cl)cc12` (stereo not shown) [Example 243, 6-Chloro-8-(4-methanesulfinyl-phenyl)-1-methyl-9H-pyrido[3,4-b]indole]: the EC50 was 660 nM and the maximal effect (Emax) is more than 80%.

Turning to `Cc1nccc2c1[nH]c1c(-c3ccc4[nH]ncc4c3)cc(Cl)cc12` [Example 232, 6-Chloro-8-(1H-indazol-5-yl)-1-methyl-9H-pyrido[3,4-b]indole], it took 330 nM to reach a half-maximal effect (EC50) and the Emax was more than 80%.

On to `CCn1c2c(-c3ccn(C)n3)cc(Cl)cc2c2ccnc(C)c21` [Example 20, 6-Chloro-9-ethyl-1-methyl-8-(1-methyl-1H-pyrazol-3-yl)-9H-pyrido[3,4-b]indole], for which the EC50 came to 3900 nM and the Emax lay within 50 to 80%.

`COc1ccc(-c2cc(C(N)=O)cc3c2[nH]c2c(C)nccc23)cc1` [Example 36, 8-(4-Methoxy-phenyl)-1-methyl-9H-pyrido[3,4-b]indole-6-carboxamide] had an EC50 of 100 nM and an Emax of more than 80%.

`CCn1c2c(-c3ccn(CCn4cccn4)n3)cc(Cl)cc2c2ccnc(C)c21` [Example 233, 6-Chloro-9-ethyl-1-methyl-8-[1-(2-pyrazol-1-yl-ethyl)-1H-pyrazol-3-yl]-9H-pyrido[3,4-b]indole] registered an EC50 of more than 10000 nM and an Emax of 20 to 50%.

As for `FC(F)(F)Cn1c2cnccc2c2cc(Cl)cc(-c3ccc(C(F)(F)F)nc3)c21` [Example 88, 6-Chloro-9-(2,2,2-trifluoro-ethyl)-8-(6-trifluoromethyl-pyridin-3-yl)-9H-pyrido[3,4-b]indole], the midpoint of the response, the EC50, lay at 1700 nM and the maximum response (Emax) was less than 20%.

The molecule `CCn1c2c(-c3ccc(OC)cc3)cc(Cl)cc2c2ccnc(C)c21` [Example 147, 6-Chloro-9-ethyl-8-(4-methoxy-phenyl)-1-methyl-9H-pyrido[3,4-b]indole] yielded an EC50 of 840 nM and an Emax of more than 80%.

Regarding `Cc1nccc2c3cc(Cl)cc(-c4cncnc4)c3n(CC3CC3)c12` [Example 281, 6-Chloro-9-cyclopropylmethyl-1-methyl-8-pyrimidin-5-yl-9H-pyrido[3,4-b]indole], the midpoint of the response, the EC50, lay at 110 nM and the Emax is less than 20%.

`CC(C)Cn1cc(-c2cc(Cl)cc3c4ccncc4n(CC(F)(F)F)c23)cn1` [Example 137, 6-Chloro-8-(1-isobutyl-1H-pyrazol-4-yl)-9-(2,2,2-trifluoro-ethyl)-9H-pyrido[3,4-b]indole] yielded an EC50 of 1400 nM and a maximal effect (Emax) of 20 to 50%.

With `COc1ccc(-c2cc(Cl)cc3c4ccncc4n(CC4(C)COC4)c23)cc1` [Example 52, 6-Chloro-8-(4-methoxy-phenyl)-9-(3-methyl-oxetan-3-ylmethyl)-9H-pyrido[3,4-b]indole], a half-maximal response (EC50) required 1200 nM and the Emax fell in the range of 50 to 80%.

For the molecule `COc1ccc(-c2cc(Cl)cc3c2[nH]c2c(C)nccc23)cc1OCc1ccccc1` [Example 185, 8-(3-Benzyloxy-4-methoxy-phenyl)-6-chloro-1-methyl-9H-pyrido[3,4-b]indole], the EC50 was more than 10000 nM and the maximum response (Emax) lay in the range of 20 to 50%.

`FC(F)(F)Cn1c2cnccc2c2cc(Cl)cc(-c3cncnc3)c21` [Example 126, 6-Chloro-8-pyrimidin-5-yl-9-(2,2,2-trifluoro-ethyl)-9H-pyrido[3,4-b]indole] returned an EC50 of more than 10000 nM and an Emax of 20 to 50%.

On to `CCn1c2cnccc2c2cc(Cl)cc(-c3cncnc3)c21` [Example 133, 6-Chloro-9-ethyl-8-pyrimidin-5-yl-9H-pyrido[3,4-b]indole], for which the EC50 was more than 10000 nM and the maximum response (Emax) lay in the range of 20 to 50%.

`FC(F)(F)Cn1c2cnccc2c2cc(Cl)cc(-c3cnn(Cc4ccncc4)c3)c21` [Example 112, 6-Chloro-8-(1-pyridin-4-ylmethyl-1H-pyrazol-4-yl)-9-(2,2,2-trifluoro-ethyl)-9H-pyrido[3,4-b]indole] yielded an EC50 of 490 nM and an Emax of more than 80%.

In turn, `CCn1c2c(-c3ccc(OC)nc3)cc(Cl)cc2c2ccnc(C)c21` [Example 91, 6-Chloro-9-ethyl-8-(6-methoxy-pyridin-3-yl)-1-methyl-9H-pyrido[3,4-b]indole] had an EC50 of 1500 nM and an Emax of more than 80%.

Molecule `CCn1c2cnccc2c2cc(Cl)cc(-c3cccnc3)c21` [Example 1, 6-Chloro-9-ethyl-8-pyridin-3-yl-9H-pyrido[3,4-b]indole] showed an EC50 of 1700 nM and an Emax of less than 20%.
